Assay in all cases: Generic kinase assay (33P-ATP, Myelin Basic Protein)
What all share (assay type): biochemical

The subject of one experiment is PDGFR. The conditions noted are these: class symbol: % inhibition at 10 μM or IC50. As for the experimental part: (§1) In order to determine the inhibitory effect of the compounds of the subject invention on various target enzymes a generic kinase assay was established.
(§2) Reactions were performed in 96-Well U-bottom microtiter plates (Greiner Bio-One; Frickenhausen/Germany, Cat. No. 650161), hereinafter designated “Assay Plates”. 10 μl of a solution comprising 40 μM Myelin Basic Protein (Invitrogen; Carlsbad, Calif./USA; Cat. No. 13228-010) and 4 μM ATP in three-fold concentrated Reaction Buffer (60 mM Tris-HCl, pH 7.5; 30 mM MgCl2; 3 mM dithiothreitol) were added into each well of the Assay Plate. 10 μl of serial dilutions of the compounds of the subject invention, dissolved in 4% DMSO, were then added into each well, except for Positive Control. Wells (C+ wells) and Negative Control Wells (C− wells). 10 μl of 4% DMSO without compounds were added to C+ and C− wells. 10 μl of a 500 mM solution of EDTA in water was then added to C− wells. Then 10 μl of a solution containing 50 μCi/ml Adenosine 5′-[γ-^33P]triphosphate in water was added to each well. To start the reaction 10 μl of the kinase to be assayed was added to each well. The optimal amount of kinase in the assay was determined to be the amount which yields to a turn-over of about 10% of ATP. Assay Plates were incubated for one hour at room temperature. Then 10 μl of a 500 mM solution of EDTA in water was added to each well except C− wells. Samples were now ready for measurement.
(§3) Measurements were preformed in 96-Well MAPH-Filter Plates (Millipore; Billerica, Mass./United States; Cat. No. MAPHNOB50), hereinafter designated “Measurement Plates”. Measurement Plates were washed with 200 μl of a 0.75% H3PO4 solution per well. The H3PO4 solution was exhausted using a Millipore vacuum station. 60 μl of a 0.75% H3PO4 solution was then added into each well, followed by the transfer of 30 μl of each well from the Assay Plate into the corresponding wells of the Measurement Plate. The Measurement Plate was incubated for 30 minutes at room temperature. Thereafter each well was washed three times with 200 μl of a 0.75% H3PO4 solution using a Millipore vacuum station. 20 μl of scintillation liquid (Supermix Liquid Szintillator; Perkin Elmer, Wellesley. Mass./United States; Cat. No. 1200-439) was then added to each well of the Measurement Plate. The plate was sealed and stored for 30 minutes in the darkness before radioactivity was quantified in a MicroBeta Scintillation Counter (Perkin Elmer, Wellesley. Mass./United States).

Another experiment concerns the target RICK (Homo sapiens, UniProt O43353). The conditions noted are these: class symbol: % inhibition at 10 μM or IC50. As for the experimental part:
as §1, §2, §3

A further experiment concerns the target CDK1/CyclinB (Homo sapiens, UniProt P06493). The conditions noted are these: class symbol: % inhibition at 10 μM or IC50. As for the experimental part: as §1, §2, §3
For the next experiment, the target named is CDK5/p35 (Homo sapiens, UniProt Q00535). The note with it: class symbol: % inhibition at 10 μM or IC50. How it is done:
as §1, §2, §3

The next experiment addresses T1, IKKb (Homo sapiens, UniProt O14920).
T1 sequence (O14920 1-756): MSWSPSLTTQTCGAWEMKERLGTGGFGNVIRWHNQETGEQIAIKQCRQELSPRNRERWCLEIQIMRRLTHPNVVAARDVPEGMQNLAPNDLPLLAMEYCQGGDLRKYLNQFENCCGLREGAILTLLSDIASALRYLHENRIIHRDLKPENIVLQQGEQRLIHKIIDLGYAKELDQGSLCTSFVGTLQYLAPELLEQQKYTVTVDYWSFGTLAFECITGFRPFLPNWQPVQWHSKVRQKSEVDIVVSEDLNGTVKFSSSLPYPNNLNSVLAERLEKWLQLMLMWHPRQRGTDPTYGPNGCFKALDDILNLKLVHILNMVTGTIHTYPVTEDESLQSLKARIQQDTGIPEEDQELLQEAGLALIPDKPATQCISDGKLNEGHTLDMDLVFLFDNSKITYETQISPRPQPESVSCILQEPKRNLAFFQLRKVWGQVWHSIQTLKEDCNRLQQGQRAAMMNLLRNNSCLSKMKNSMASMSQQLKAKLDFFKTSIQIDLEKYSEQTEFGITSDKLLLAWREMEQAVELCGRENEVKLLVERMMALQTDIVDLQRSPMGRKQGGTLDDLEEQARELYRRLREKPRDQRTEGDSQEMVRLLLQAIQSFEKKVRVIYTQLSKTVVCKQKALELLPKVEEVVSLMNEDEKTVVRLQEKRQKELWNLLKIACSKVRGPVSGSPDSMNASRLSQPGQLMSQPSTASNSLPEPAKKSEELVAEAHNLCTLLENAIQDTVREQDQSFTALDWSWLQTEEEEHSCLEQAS
The note with it: class symbol: % inhibition at 10 μM or IC50. As for the experimental part:
as §1, §2, §3

The target in a further experiment is Abl (Homo sapiens, UniProt P00519). The note with it: 1 h; class symbol: % inhibition at 10 μM or IC50; read-out: Inhibitory effect on target Abl. How it is done: as §1, §2, §3
Another experiment deals with cRaf (Homo sapiens, UniProt P04049). The conditions noted are these: 1 h; class symbol: % inhibition at 10 μM or IC50; read-out: Inhibitory effect on target cRaf. As for the experimental part:
as §1, §2, §3

For another experiment, the target named is c-Src (Homo sapiens, UniProt P12931). The note with it: class symbol: % inhibition at 10 μM or IC50. How it is done: as §1, §2, §3
For another experiment, the target named is p56Lck (Homo sapiens, UniProt P06239). The note with it: 1 h; class symbol: % inhibition at 10 μM or IC50; read-out: Inhibitory effect on target p56Lck. How it is done:
as §1, §2, §3

The next experiment deals with EGFR (Homo sapiens, UniProt P00533). The note with it: class symbol: % inhibition at 10 μM or IC50. How it is done:
as §1, §2, §3

The target of another experiment is c-kit (Homo sapiens, UniProt P10721). The conditions noted are these: 1 h; class symbol: % inhibition at 10 μM or IC50; read-out: Inhibitory effect on target c-kit. How it is done: as §1, §2, §3
Sequence of c-kit (P10721 26-976): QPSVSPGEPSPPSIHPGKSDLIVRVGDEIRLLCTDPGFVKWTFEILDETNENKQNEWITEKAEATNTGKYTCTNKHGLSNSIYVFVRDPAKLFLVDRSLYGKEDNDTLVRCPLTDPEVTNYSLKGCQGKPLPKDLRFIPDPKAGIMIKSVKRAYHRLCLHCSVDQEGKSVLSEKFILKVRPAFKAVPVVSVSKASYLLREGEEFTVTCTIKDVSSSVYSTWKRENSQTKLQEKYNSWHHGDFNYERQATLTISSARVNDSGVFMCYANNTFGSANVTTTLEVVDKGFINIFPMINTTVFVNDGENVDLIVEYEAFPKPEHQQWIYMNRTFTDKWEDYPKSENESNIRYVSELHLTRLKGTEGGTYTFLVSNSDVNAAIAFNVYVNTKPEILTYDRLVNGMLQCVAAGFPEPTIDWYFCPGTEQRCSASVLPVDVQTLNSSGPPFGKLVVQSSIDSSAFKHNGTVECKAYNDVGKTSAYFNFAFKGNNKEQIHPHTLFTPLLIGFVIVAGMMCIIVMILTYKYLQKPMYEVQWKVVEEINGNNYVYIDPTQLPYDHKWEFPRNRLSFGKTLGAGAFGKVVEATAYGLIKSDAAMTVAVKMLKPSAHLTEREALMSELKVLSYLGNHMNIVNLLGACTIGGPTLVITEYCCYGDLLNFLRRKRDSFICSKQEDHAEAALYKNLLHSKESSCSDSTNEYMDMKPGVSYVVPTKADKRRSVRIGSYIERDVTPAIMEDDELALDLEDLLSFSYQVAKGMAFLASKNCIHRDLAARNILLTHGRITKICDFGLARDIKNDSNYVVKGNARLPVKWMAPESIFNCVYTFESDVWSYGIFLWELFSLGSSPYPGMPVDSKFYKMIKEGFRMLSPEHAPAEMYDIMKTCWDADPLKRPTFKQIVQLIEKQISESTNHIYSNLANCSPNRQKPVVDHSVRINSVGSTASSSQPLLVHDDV
Another experiment addresses ROCK 2 (Homo sapiens, UniProt O75116). The conditions noted are these: 1 h; class symbol: % inhibition at 10 μM or IC50; read-out: Inhibitory effect on target ROCK 2. How it is done: as §1, §2, §3
Another experiment concerns the target CDK2/CyclinA (Homo sapiens, UniProt P24941). The conditions noted are these: class symbol: % inhibition at 10 μM or IC50. As for the experimental part: as §1, §2, §3
In another experiment the target is UL97 (Human cytomegalovirus, UniProt P16788). The conditions noted are these: class symbol: % inhibition at 10 μM or IC50. How it is done: as §1, §2, §3

Sequence of CDK1/CyclinB (P06493 whole entry, species assumed): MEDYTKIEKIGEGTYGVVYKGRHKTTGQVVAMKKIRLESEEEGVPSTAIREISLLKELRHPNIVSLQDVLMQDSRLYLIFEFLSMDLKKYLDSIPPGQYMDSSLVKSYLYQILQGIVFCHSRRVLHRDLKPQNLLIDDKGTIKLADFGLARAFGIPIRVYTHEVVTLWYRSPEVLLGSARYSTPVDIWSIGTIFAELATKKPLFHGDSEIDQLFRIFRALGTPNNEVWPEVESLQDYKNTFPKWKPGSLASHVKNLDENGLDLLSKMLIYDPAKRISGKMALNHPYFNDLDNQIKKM
Sequence of CDK1/CyclinB (P14635 whole entry partner, species assumed): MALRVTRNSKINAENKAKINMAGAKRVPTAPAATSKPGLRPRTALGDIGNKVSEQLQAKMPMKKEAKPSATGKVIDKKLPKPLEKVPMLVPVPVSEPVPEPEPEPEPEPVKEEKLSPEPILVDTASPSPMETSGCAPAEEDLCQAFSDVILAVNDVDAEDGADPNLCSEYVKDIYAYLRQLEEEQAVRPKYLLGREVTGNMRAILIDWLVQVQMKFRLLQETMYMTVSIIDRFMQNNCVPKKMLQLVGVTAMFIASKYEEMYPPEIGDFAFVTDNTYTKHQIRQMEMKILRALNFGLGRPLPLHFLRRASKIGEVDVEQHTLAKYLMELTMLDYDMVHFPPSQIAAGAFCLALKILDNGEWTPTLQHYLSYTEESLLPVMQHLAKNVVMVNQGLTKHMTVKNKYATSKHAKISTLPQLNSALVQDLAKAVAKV
Sequence of ROCK 2 (O75116 whole entry, species assumed): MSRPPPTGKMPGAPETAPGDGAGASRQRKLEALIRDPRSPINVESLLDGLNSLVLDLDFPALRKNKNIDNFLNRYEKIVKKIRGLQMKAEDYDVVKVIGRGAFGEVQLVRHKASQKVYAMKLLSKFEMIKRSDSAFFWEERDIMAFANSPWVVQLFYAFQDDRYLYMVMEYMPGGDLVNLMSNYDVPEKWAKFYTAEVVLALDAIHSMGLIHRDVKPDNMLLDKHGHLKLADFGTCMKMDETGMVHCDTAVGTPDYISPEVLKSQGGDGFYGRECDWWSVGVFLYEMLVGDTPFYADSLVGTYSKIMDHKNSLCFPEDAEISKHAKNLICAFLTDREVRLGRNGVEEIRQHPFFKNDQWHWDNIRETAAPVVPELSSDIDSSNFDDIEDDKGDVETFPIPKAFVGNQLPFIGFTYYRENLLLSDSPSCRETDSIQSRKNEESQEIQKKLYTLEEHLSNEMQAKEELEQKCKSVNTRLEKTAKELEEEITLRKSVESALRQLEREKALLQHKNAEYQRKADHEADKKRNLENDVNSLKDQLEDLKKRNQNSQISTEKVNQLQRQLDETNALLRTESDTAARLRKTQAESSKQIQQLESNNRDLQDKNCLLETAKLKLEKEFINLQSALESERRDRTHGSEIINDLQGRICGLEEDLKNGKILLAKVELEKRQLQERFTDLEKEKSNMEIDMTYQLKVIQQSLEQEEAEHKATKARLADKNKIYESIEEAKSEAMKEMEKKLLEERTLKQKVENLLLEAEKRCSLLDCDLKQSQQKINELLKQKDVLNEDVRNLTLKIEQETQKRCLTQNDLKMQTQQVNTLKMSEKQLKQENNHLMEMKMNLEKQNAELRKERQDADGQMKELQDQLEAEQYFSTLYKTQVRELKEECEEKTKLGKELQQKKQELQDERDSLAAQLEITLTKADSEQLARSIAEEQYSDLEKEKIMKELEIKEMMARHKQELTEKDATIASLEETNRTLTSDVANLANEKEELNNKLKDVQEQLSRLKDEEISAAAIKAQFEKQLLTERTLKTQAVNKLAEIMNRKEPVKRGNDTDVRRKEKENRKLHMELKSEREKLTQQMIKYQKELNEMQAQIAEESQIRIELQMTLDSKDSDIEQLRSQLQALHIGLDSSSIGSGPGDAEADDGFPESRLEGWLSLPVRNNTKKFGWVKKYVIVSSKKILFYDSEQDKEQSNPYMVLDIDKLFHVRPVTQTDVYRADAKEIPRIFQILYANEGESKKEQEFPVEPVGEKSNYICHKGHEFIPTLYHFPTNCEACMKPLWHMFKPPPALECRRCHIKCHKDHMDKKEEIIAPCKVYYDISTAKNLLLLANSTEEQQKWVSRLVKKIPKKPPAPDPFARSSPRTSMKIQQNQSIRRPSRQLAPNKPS
Sequence of p56Lck (P06239 whole entry, species assumed): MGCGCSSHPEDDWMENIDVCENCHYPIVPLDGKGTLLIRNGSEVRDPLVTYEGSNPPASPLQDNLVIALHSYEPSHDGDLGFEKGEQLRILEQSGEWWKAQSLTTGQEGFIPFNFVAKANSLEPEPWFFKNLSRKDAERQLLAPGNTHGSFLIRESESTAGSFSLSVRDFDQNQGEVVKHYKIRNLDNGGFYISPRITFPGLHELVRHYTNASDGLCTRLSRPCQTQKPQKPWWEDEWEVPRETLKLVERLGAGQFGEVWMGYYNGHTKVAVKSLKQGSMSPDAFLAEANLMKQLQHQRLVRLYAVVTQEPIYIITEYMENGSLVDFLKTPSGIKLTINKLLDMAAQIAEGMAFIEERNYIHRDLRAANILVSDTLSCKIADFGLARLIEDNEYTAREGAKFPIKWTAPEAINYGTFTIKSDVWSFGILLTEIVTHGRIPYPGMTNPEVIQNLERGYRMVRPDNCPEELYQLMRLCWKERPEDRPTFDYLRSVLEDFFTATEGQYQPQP
Sequence of cRaf (P04049 whole entry, species assumed): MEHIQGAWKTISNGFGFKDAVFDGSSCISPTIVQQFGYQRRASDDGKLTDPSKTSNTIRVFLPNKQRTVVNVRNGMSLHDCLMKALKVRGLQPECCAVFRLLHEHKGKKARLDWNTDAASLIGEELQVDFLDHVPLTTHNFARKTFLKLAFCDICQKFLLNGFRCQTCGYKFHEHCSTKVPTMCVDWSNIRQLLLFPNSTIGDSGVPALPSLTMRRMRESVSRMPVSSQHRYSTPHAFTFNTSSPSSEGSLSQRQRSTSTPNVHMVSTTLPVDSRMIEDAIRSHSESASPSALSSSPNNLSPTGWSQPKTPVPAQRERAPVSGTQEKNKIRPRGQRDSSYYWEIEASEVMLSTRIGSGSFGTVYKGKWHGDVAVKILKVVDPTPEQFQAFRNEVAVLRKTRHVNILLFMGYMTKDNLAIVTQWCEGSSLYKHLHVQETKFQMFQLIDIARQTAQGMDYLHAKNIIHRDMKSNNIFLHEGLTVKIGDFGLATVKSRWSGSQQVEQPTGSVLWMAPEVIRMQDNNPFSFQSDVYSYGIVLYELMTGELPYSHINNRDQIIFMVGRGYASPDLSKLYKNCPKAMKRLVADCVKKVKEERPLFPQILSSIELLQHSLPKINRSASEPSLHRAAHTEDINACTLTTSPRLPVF
Sequence of RICK (O43353 whole entry, species assumed): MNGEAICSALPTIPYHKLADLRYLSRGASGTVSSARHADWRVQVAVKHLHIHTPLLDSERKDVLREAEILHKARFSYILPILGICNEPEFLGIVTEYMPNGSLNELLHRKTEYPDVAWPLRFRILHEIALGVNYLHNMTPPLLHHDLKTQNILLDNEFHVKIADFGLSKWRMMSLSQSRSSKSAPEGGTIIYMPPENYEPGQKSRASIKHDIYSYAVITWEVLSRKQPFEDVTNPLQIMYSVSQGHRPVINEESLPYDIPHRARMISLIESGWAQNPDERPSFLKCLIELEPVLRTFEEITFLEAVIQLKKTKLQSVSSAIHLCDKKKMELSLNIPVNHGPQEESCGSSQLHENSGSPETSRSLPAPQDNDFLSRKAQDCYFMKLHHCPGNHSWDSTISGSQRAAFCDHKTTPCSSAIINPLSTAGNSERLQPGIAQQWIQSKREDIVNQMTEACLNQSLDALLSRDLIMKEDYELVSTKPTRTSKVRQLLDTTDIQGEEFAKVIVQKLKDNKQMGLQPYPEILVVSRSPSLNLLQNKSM

As for `CC(=O)Nc1cccc(-c2cncc(Nc3ccc(C#N)cc3)c2)c1` [Compound 205, N-{3-[5-(4-Cyano-phenylamino)-pyridin-3-yl]-phenyl}-acetamide], the “Inhibitory effect on target PDGFR” value in the experiment on PDGFR is listed as “A (A: 50-90% inhibition at 10 μM enzyme concentration)”. For the same compound, the “Inhibitory effect on target RICK” value on RICK was “C (C: IC50 measured: <1 μM)”. Moreover, the “Inhibitory effect on target CDK1/CyclinB” value on CDK1/CyclinB is “A (A: 50-90% inhibition at 10 μM enzyme concentration)”. Moreover, the “Inhibitory effect on target CDK5/p35” value on CDK5/p35 was “A (A: 50-90% inhibition at 10 μM enzyme concentration)”. Moreover, on IKKb, the “Inhibitory effect on target IKKb” value was “A (A: 50-90% inhibition at 10 μM enzyme concentration)”.
Consider `Oc1cccc(CNc2cncc(-c3cccc(O)c3F)c2)c1` [Compound 231, 2-Fluoro-3-[5-(3-hydroxy-benzylamino)-pyridin-3-yl]-phenol], for which the “Inhibitory effect on target PDGFR” value in the experiment with PDGFR is “A (A: 50-90% inhibition at 10 μM enzyme concentration)”. Moreover, the inhibition at 10 µM at Abl, on cRaf, at p56Lck and on c-kit was 50 to 90% each time. Besides, on RICK, the “Inhibitory effect on target RICK” value is “C (C: IC50 measured: <1 μM)”. Besides, on CDK1/CyclinB, the “Inhibitory effect on target CDK1/CyclinB” value is reported as “A (A: 50-90% inhibition at 10 μM enzyme concentration)”. Moreover, the “Inhibitory effect on target c-Src” value at c-Src is given as “B (B: >90% inhibition at 10 μM enzyme concentration)”. The “Inhibitory effect on target EGFR” value at EGFR is listed as “A (A: 50-90% inhibition at 10 μM enzyme concentration)”. The “Inhibitory effect on target CDK5/p35” value at CDK5/p35 is reported as “A (A: 50-90% inhibition at 10 μM enzyme concentration)”.
Take `O=C(Nc1cncc(-c2cccc(O)c2)c1)c1cccc(O)c1` [Compound 234, 3-Hydroxy-N-[5-(3-hydroxy-phenyl)-pyridin-3-yl]-benzamide]: in the experiment on PDGFR, the “Inhibitory effect on target PDGFR” value is “B (B: >90% inhibition at 10 μM enzyme concentration)”. The inhibition at 10 µM is 50 to 90% on Abl, 50 to 90% at cRaf, greater than 90% at p56Lck and 50 to 90% at c-kit. In addition, the “Inhibitory effect on target RICK” value on RICK is “C (C: IC50 measured: <1 μM)”. Moreover, on c-Src, the “Inhibitory effect on target c-Src” value is “B (B: >90% inhibition at 10 μM enzyme concentration)”. Moreover, the “Inhibitory effect on target EGFR” value on EGFR is on record as “B (B: >90% inhibition at 10 μM enzyme concentration)”. Also, the “Inhibitory effect on target IKKb” value at IKKb is “A (A: 50-90% inhibition at 10 μM enzyme concentration)”.
Turning to `COc1cccc(-c2cncc(NCc3cccc(O)c3)c2)c1F` [Compound 236, 3-{[5-(2-Fluoro-3-methoxy-phenyl)-pyridin-3-ylamino]-methyl}-phenol], the “Inhibitory effect on target PDGFR” value with PDGFR is given as “A (A: 50-90% inhibition at 10 μM enzyme concentration)”. For the same compound, the inhibition at 10 µM is 50 to 90% at Abl, 50 to 90% at cRaf, 50 to 90% at p56Lck and greater than 90% on c-kit. Also, the “Inhibitory effect on target RICK” value at RICK is reported as “C (C: IC50 measured: <1 μM)”. Also, at CDK1/CyclinB, the “Inhibitory effect on target CDK1/CyclinB” value is “A (A: 50-90% inhibition at 10 μM enzyme concentration)”. Besides, at c-Src, the “Inhibitory effect on target c-Src” value is “A (A: 50-90% inhibition at 10 μM enzyme concentration)”. For the same compound, on EGFR, the “Inhibitory effect on target EGFR” value is given as “A (A: 50-90% inhibition at 10 μM enzyme concentration)”.
As to `CC(=O)Nc1cccc(-c2cncc(Nc3ccccc3F)c2)c1` [Compound 237, N-{3-[5-(2-Fluoro-phenylamino)-pyridin-3-yl]-phenyl}-acetamide], the “Inhibitory effect on target PDGFR” value with PDGFR is recorded as “A (A: 50-90% inhibition at 10 μM enzyme concentration)”. Besides, at RICK, the “Inhibitory effect on target RICK” value is reported as “C (C: IC50 measured: <1 μM)”. For the same compound, the “Inhibitory effect on target CDK1/CyclinB” value at CDK1/CyclinB is “A (A: 50-90% inhibition at 10 μM enzyme concentration)”. The “Inhibitory effect on target EGFR” value on EGFR is “A (A: 50-90% inhibition at 10 μM enzyme concentration)”. Moreover, the “Inhibitory effect on target IKKb” value on IKKb is “A (A: 50-90% inhibition at 10 μM enzyme concentration)”.
Regarding `COc1cccc(-c2cncc(NCc3cccc(O)c3)c2)c1` [Compound 239, 3-{[5-(3-Methoxy-phenyl)-pyridin-3-ylamino]-methyl}-phenol], the “Inhibitory effect on target PDGFR” value in the experiment on PDGFR is “B (B: >90% inhibition at 10 μM enzyme concentration)”. Further, the inhibition at 10 µM at Abl, on cRaf, on ROCK 2 and at p56Lck was 50 to 90% each time. Moreover, at RICK, the “Inhibitory effect on target RICK” value is listed as “C (C: IC50 measured: <1 μM)”. At CDK1/CyclinB, the “Inhibitory effect on target CDK1/CyclinB” value is given as “B (B: >90% inhibition at 10 μM enzyme concentration)”. Further, the “Inhibitory effect on target c-Src” value on c-Src was “B (B: >90% inhibition at 10 μM enzyme concentration)”. For the same compound, on EGFR, the “Inhibitory effect on target EGFR” value is reported as “A (A: 50-90% inhibition at 10 μM enzyme concentration)”. Moreover, the “Inhibitory effect on target CDK5/p35” value on CDK5/p35 is “A (A: 50-90% inhibition at 10 μM enzyme concentration)”. In addition, the “Inhibitory effect on target CDK2/CyclinA” value on CDK2/CyclinA is on record as “C (C: IC50 measured: <1 μM)”.
Turning to `CN(Cc1cccc(O)c1)c1cncc(-c2cccc(O)c2)c1` [Compound 241, 3-{5-[(3-Hydroxy-benzyl)-methyl-amino]-pyridin-3-yl}-phenol], the “Inhibitory effect on target RICK” value at RICK was “C (C: IC50 measured: <1 μM)”. In addition, the inhibition at 10 µM on ROCK 2 lay in the range of 50 to 90%. Moreover, the “Inhibitory effect on target UL97” value at UL97 is listed as “C (C: IC50 measured: <1 μM)”.
`Nc1cccc(CNc2cncc(-c3cccc(O)c3)c2)c1` [Compound 245, 3-[5-(3-Amino-benzylamino)-pyridin-3-yl]-phenol]: the inhibition at 10 µM on cRaf lay in the range of 50 to 90%. Besides, the “Inhibitory effect on target RICK” value at RICK is reported as “C (C: IC50 measured: <1 μM)”. For the same compound, on UL97, the “Inhibitory effect on target UL97” value is reported as “C (C: IC50 measured: <1 μM)”.
Consider `Oc1cccc(CNc2cncc(Cc3cccc(O)c3)c2)c1` [Compound 272, (3-hydroxy-benzyl)-[5-(3-hydroxy-benzyl)-pyridin-3-yl]-amine], for which the inhibition at 10 µM at ROCK 2 fell in the range of 50 to 90%. Moreover, the “Inhibitory effect on target CDK5/p35” value on CDK5/p35 is “A (A: 50-90% inhibition at 10 μM enzyme concentration)”. Also, the “Inhibitory effect on target CDK2/CyclinA” value on CDK2/CyclinA was “B (B: >90% inhibition at 10 μM enzyme concentration)”.
